In general, viability refers to a read-out of living cells in per cent, often relative to untreated cells.

One test deals with CHO non-K1 cells. Briefly: DNA replication assay in permeabilized CHO non-K1 cells. The following applies: phosphokanamycin 100 μM, phosphoneomycin 10 μM (FIG. 7). Type of test: cell-based. How it is done: CHO non-K1 cells were used for the DNA replication assay. Cells were grown to density of 2×10^7 cells/plate in MEM medium supplemented with fetal calf serum. The cells were in log phase and unsynchronized. The plates were washed three times with cold MEM medium and cells were scraped off the plates into eppendorf tubes. The cells were centrifuged at 2000 rpm for 3 mm at 4° C. From each plate approximately 100 μl of cells were obtained. The cell pellet was resuspended in an equal volume of replication buffer [100 mM HEPES (pH 7.8), 0.2 mM dGTP, 0.2 mM DATP, 0.2 mM dTTP, 0.4 mM GTP, 0.4 mM CTP, 0.4 mM UTP, 8 mM ATP, 20 mM MgCl2, 0.2 mg/ml BSA, 2 mM DTT, 30% glycerol]. The cell suspension (20 μl) was aliquoted to individual tubes. Aminoglycosides and phosphoaminoglycosides were then added to the required final concentration. The cells were permeabilized by the addition of 0.5 μl of 20% NP-40 detergent. To monitor replication, 2 μl of α[^32 P] dCTP (3000-6000 Ci/mmole activity) was added. The cells were incubated at 37° C. for 10 min and the reaction was stopped by addition of 200 μl of stop buffer [50 mM TrisCl (pH 8.0), 10 mM EDTA, 400 mM NaCl, 1% SDS]. The cells were further incubated at 37° C. for 2 hours.
The DNA was sheared by passing 5-10 times through a 23 gauge needle. […] After drying, the radioactivity was measured using a liquid scintillation counter (Beckman).

In another test the test system is PC3 cell line. Kind of test: MTS cell survival assay, PC3 prostate cancer cells. It is filed as cell-based, human. The following applies: FIG. 8, day five. How it is done: (§1) The effect of phosphoaminoglycosides on tumor cell growth was tested in cell culture inhibition studies. 5000 cells were plated in a total volume of 50 μl in a 96 well titer plate. After 24 hours, 50 μl of media and drugs, to the required final concentration, were added. The plates were incubated at 37° C. for 5 days. On the 5th day, the fraction of surviving cells was estimated using a non-radioactive cell proliferation assay (CellTiter 96 AQueous Cell Proliferation Assay from Promega).
(§2) This is a colorimetric assay that determines the number of viable cells. The assay measures the bioreduction of a tetrazolium compound (3-(4,5-dimethylthiazol-2-yl)-5-(3-carboxymethoxyphenyl)-2-(4-sulfophenyl)-2H-tetrazolium, inner salt; MTS), via an electron coupling reagent (phenazine methosulfate; PMS), to formazan, which is soluble in the tissue culture medium. The absorbance of formazan at 490 nm can be measured from the 96 well assay plate without additional processing. The conversion of MTS into the aqueous soluble formazan is accomplished by dehydrogenase enzymes found in metabolically active cells. The quantity of formazan product as measured by the amount of 490 nm absorbance is directly proportional to the number of living cells in culture. 100 μl of the PMS reagent (Promega) was mixed with 2.0 ml of MTS solution (Promega). 20 μl of PMS/MTS solution was added to the cells and the plates were incubated at 37° C. for 2 hours before measuring the absorbance at 490 nm.
In an initial experiment, four drugs (A-kanamycin, B-phosphokanamycin, C-neomycin, and D-phosphoneomycin) were added to prostate cancer cell cultures in a blind fashion. Two prostate cancer cell lines were incubated with each of the drugs and assayed for cell survivability using the MTS assay (Promega).
5000 cells were grown overnight in media and each respective drug (A-kanamycin, B-phosphokanamycin, C-neomycin, and D-phosphoneomycin) was added on the second day. […] Each point is the average of readings from three wells.
Background: Tetrazolium dyes change colour on reduction, which living cells bring about.

Another test relates to Entamoeba histolytica. Briefly: Entamoeba histolytica culture growth. The following applies: 72 h, read-out: concentration that completely kills the cells. Type of test: cell-based. How it is done:
Entamoeba histolytica HMl-ISS strain was used for the experiment. The cells were grown in tissue culture medium TYI-S-33 containing trypticase, yeast extract, iron and serum along with 100 units/ml penicillin and […] streptomycin sulfate. 500,000 amoebae were incubated in 2 mls of media. The drugs were added to the required final concentration. The total number of amoebae was counted every 24 hours after the addition of drugs using light microscope. Growth was monitored over a period of 72 hours.

The subject of another test is LNCaP cell line. Kind of test: MTS cell survival assay, LNCaP prostate cancer cells. Type of test: cell-based. Conditions: Homo sapiens, 120 h, 8 wells, 5 days. How it is done:
as §1
as §2, with “100 μl of the PMS reagent (Promega) was mixed with 2.0 ml of MTS solution (Promega).” left out, “nm. […]” for “nm.”

Each structure is given as a SMILES string.

With `NC[C@H]1O[C@H](O[C@H]2[C@H](O)[C@@H](O[C@H]3O[C@H](CO)[C@@H](O)[C@H](N)[C@H]3O)[C@H](N)C[C@@H]2N)[C@H](O)[C@@H](OP(=O)(O)O)[C@@H]1O` [phosphokanamycin, 3′-phosphokanamycin], the “effect on DNA synthesis (in words)” value in the test on CHO non-K1 cells was “disrupted DNA synthesis”. Further, the “effect on PC3 cells (in words)” value in the test with PC3 cell line is “effective in killing the PC3 cells”. Also, the IC (100 (complete killing)) with Entamoeba histolytica is 200 µM. Moreover, in the test with LNCaP cell line, the viability at 100 µM was found to be 109 ± 9%.

(Values after patent US6573060B1, “Methods and compositions for targeting DNA metabolic processes using aminoglycoside derivatives” (University of Virginia Patent Foundation, priority 1997, dated 2003).)
